Reference: US20060166992A1, “Heterocyclically substituted imidazotriazines” (Bayer Healthcare A G, priority 2002, published 2006)

Columns and labels:
PDE 10A = biological target: T1, PDE 10A (Homo sapiens, UniProt Q9Y233); experiment: Inhibition of PDE 10A (scintillation proximity assay, [3H]cAMP substrate); format: biochemical; conditions: recombinant full-length PDE 10A expressed in Sf9 insect cells; 60 min at 20° C.
T1 construct: is expressed recombinantly in full length in Sf9 insect cells; made in house; host or cells: Sf9 insect cells (Bac-to-Bac baculovirus expression system)
T1 sequence (Q9Y233 1-779 isoform Q9Y233-1): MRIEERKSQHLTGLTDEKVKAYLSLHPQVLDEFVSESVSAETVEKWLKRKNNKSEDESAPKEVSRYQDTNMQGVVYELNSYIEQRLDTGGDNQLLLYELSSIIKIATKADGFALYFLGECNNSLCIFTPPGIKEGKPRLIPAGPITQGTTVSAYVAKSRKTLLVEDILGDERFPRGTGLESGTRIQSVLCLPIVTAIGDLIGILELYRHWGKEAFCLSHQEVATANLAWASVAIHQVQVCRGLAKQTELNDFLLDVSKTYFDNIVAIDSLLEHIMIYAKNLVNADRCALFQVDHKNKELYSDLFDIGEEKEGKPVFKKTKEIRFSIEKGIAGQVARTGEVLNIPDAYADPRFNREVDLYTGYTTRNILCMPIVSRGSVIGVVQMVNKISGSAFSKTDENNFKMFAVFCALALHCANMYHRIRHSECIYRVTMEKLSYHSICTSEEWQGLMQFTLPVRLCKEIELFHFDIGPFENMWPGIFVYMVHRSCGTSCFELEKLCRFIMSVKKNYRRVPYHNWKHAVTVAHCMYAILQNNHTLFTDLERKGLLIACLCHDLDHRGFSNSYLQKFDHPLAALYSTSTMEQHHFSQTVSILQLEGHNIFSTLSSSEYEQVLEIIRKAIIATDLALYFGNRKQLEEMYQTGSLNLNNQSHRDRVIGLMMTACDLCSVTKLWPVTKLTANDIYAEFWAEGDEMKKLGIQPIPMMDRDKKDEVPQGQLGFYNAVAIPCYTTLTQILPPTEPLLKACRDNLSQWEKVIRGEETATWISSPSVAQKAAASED
Experimental: PDE 10A (WO 01/29 199, FIG. 1A) is expressed recombinantly in full length in Sf9 insect cells (Invitrogen, Carlsbad, Calif.) with the aid of the Bac-to-Bac™ Baculovirus expression system from Life Technologies (Gaithersburg, Md.). 48 h after infection, the cells are harvested and suspended in 20 ml (per 11 of culture) of lysis buffer (50 mM tris HCl, pH 7.4, 50 mM NaCl, 1 mM MgCl2, 1.5 mM EDTA, 10% glycerol plus 20 μl of Protease Inhibitor Cocktail Set II [CalBiochem, La Jolla, Calif. USA]). The cells are treated with ultrasound at 4° C. for 1 minute and subsequently centrifuged at 10 000 rpm for 30 minutes at 4° C. The supernatant (PDE 10A preparation) was collected and stored at −20° C.
The test substances are dissolved in 100% DMSO for the determination of their in vitro action on PDE 10A and serially diluted. Typically, dilution series from 200 μM to 1.6 μM are prepared (resulting final concentrations in the test: 4 μM to 0.032 μM). 2 μl of the diluted substance solutions in each case are introduced into the hollows of microtiter plates (Isoplate; Wallac Inc., Atlanta, Ga.). Subsequently, 50 μl of a dilution of the PDE 10A preparation described above are added. The dilution of the PDE 10A preparation is chosen such that during the later incubation less than 70% of the substrate is reacted (typical dilution: 1:10 000; dilution buffer: 50 mM tris/HCl pH 7.5, 8.3 mM MgCl2, 1.7 mM EDTA, 0.2% BSA). The substrate, [5′,8-^3H] adenosine 3′,5′-cyclic phosphate (1 μCi/μl; Amersham Pharmacia Biotech., Piscataway, N.J.) is diluted 1:2000 with assay buffer (50 mM tris/HCl pH 7.5, 8.3 mM MgCl2, 1.7 mM EDTA) to a concentration of 0.0005 μCi/μl. The enzyme reaction is finally started by addition of 50 μl (0.025 μCi) of the diluted substrate. The test batches are incubated for 60 min at 20° C. and the reaction is stopped by addition of 25 μl of a suspension containing 18 mg/ml of Yttrium Scintillation Proximity Beads (Amersham Pharmacia Biotech., Piscataway, N.J.). The microtiter plates are sealed using a film and allowed to stand for 60 min at 20° C. Subsequently, the plates are measured for 30 s per hollow in a Microbeta scintillation counter (Wallac Inc., Atlanta, Ga.). IC50 values are determined by means of graphic plotting of the substance concentration against the percentage inhibition.
The PDE 10A-inhibiting action of the compounds according to the invention may be shown by the following examples: […]

haloperidol catalepsy [1] = conditions: described in EP-A 1 250 923; cited from earlier work
haloperidol catalepsy [2] = experiment: Catalepsy test on rats (potentiation of haloperidol catalepsy); format: in vivo; conditions: 3 mg/kg intraperitoneal together with haloperidol (0.3 mg/kg s.c.), significant
Experimental: The period of time which elapses up to the correction of an imposed position can be used as a measure of the intensity of catalepsy.
A low dose of haloperidol (0.3 mg/kg s.c.) is given on its own 30 min before the catalepsy test or administered together with the compound. In order to measure the cataleptic behavior, both forepaws of the rat are put onto a block of wood of 9 cm height and 5.5 cm width×5.5 cm depth. The time which elapses until an animal pulls its forepaws down from the block again is recorded as the duration of catalepsy. All rats are taken from the block of wood after 60 seconds at the latest. The data acquired from each treatment group (10 animals in each case) are analyzed statistically by means of variance analysis (ANOVA).

IC50 (PDE 10A) | Compound | effect on haloperidol catalepsy (haloperidol catalepsy [1]) | increase in the duration of catalepsy (haloperidol catalepsy [2])
150 nM | COc1cc(Nc2nc(-c3ccncc3)nn3c(C)nc(C)c23)cc(OC)c1OC [Example 14] | – | –
30 nM | COc1cc(Nc2nc(-c3cccnc3)nn3c(C)nc(C)c23)cc(OC)c1OC [Example 16] | – | 103%

Second part, the compound before the results:

Compound | IC50 (PDE 10A) | effect on haloperidol catalepsy (haloperidol catalepsy [1]) | increase in the duration of catalepsy (haloperidol catalepsy [2])
COc1cc(Oc2nc(-c3cccnc3)nn3c(C(C)C)nc(C)c23)cc(OC)c1OC [Example 10, 7-isopropyl-5-methyl-2-(3-pyridinyl)-4-(3,4,5-trimethoxyphenoxy)imidazo[5,1-f][1,2,4]triazine] | 8 nM | – | –
COc1cc(Nc2nc(-c3cnc(C)s3)nn3c(C)nc(C)c23)cc(OC)c1OC [Example 12, 5,7-Dimethyl-2-(2-methyl-1,3-thiazol-5-yl)-N-(3,4,5-trimethoxyphenyl)imidazo-[5,1-f][1,2,4]triazin-4-amine] | 93 nM | – | –
COc1ccc(Cc2nccc3cc(OC)c(OC)cc23)cc1OC [papaverine] | – | potentiation of haloperidol catalepsy | –
COc1cc(Oc2nc(-c3ccc(C)nc3)nn3c(C)nc(C)c23)cc(OC)c1OC [Example 9] | 38 nM | – | –
